Among the data in US11384078B2, “5,6-fused-bicyclic compounds and compositions for the treatment of parasitic diseases” (NOVARTIS AG, priority 2017, dated 2022) are EC50 values, retold here.

Test [1] has as its system Trypanosoma cruzi amastigotes cultured in 3T3 fibroblast cells. Nature of the test: Assay for growth inhibition of kinetoplastid parasite Trypanosoma cruzi (beta-galactosidase Tulahuen strain, CPRG readout). Type of test: cell-based. Conditions: Trypanosoma cruzi, Fibroblast, read-out: Buckner infectious T. cruzi EC50. From the text: Assay for Growth Inhibition of Kinetoplastid Parasite Trypanosoma cruzi
Compounds of the invention can be assayed for inhibitor activity against Trypanosoma cruzi amastigotes cultured in 3T3 fibroblast cells. The assay is done using the mammalian stage (amastigotes) of T. cruzi that replicates in the intracellular space of host cells. The host cells are initially infected with the culture-derived trypomastigotes that rapidly invade and then divide as amastigotes. The protocol uses the Tulahuen strain of T. cruzi that has been engineered to express the E. coli beta-galactosidase gene (Lac-Z) (Antimicr. Agents Chemoth. 40:2592, 1996). This allows for a colorimetric readout by using the substrate CPRG and an absorbance plate reader.
3T3 fibroblast cells are re-suspended in RPMI-1640 medium without phenol red medium supplemented with 10% FBS (heat inactivated), 100 μg/ml penicillin, and 100 μg/ml streptomycin. Forty μL of suspension (1,000 cells) is dispensed into 384-well plates and incubated overnight at 37° C. temperature and in atmosphere containing 5% CO2. The following day, 100 nL of compounds of the invention in DMSO are added to plate wells containing 3T3 cells. At the same time control compounds (benznidazole and nifurtimox) and DMSO are added to plates to serve as the positive and negative controls, respectively. After that, 10 μL of media containing 10,000 T. cruzi trypomastigotes are added to each plate well and plates are placed back into incubators. After 6 day incubation, 10 μL of reagent solution (0.6 mM CPRG, 0.6% NP-40 in PBS) is added to plates and incubated at room temperature for 2 hours. Absorbance is then measured on SpectraMax GEMINI fluorimeter to determine relative number of T. cruzi cells present in each plate well.

Test [2] relates to Leishmania donovani axenic amastigote. The experiment in a line: In vitro assay for growth inhibition of Leishmania donovani axenic amastigote (Cell TiterGlo luminescence). The conditions noted are these: Leishmania donovani, read-out: L. donovani amastigotes EC50. Type of test: cell-based. The procedure: Abbreviations as used herein below have the corresponding meaning: • CPRG Chlorophenol Red-P-D-galactopyranoside • ATP adenosine triphosphate • BSA bovine serum albumin • DMSO dimethyl sulfoxide • FBS fetal bovine serum • PBS phosphate buffered saline • RPMI 1640 Rosweli Park Memorial Institute (RPMI) 1640 medium In Vitro Assay for Growth Inhibition of Leishmania donovani Axenic Amastiqote
Leishmania donovani axenic amastigote parasites are grown at 37° C., 5% CO2 in media made of RPMI 1640, 4 mM L-glutamine, 20% heat inactivated FBS, 100 units/ml of penicillin and 100 μg/ml of streptomycin, 23 μM folic acid, 100 μM adenosine, 22 mM D-glucose, 25 mM MES. The pH of media is adjusted to 5.5 at 37° C. using HCl. 20 μL of media is first dispensed into 384 well plates and 100 nL of the compounds of invention in DMSO are added to the plate wells. At the same time control compounds and DMSO are added to plates to serve as the positive and negative controls, respectively. 40 μL of parasite culture (9600 parasites) are then added to the plate wells. The plates are then placed into incubators. After two days incubation, 20 μL of Cell TiterGlo® (Promega) is added to the plate wells. The luminescence signal of each well is measured using the Envision reader (Perkin Elmer).

Setting [3] is: T. cruzi amastigotes in 3T3 fibroblast cells.
[4] abbreviates: L. donovani axenic amastigotes in vitro.
The mark [5] stands for this setting: Table 4: compound of Formula (I) compared with compounds having a different core.

Like-named read-outs stand apart in the source and are kept apart here.

With `O=C(Nc1ccc(F)c(-n2cc3cc(N4CCOCC4)cnc3n2)c1)c1ccco1` [Compound 122, N-{4-fluoro-3-[5-(morpholin-4-yl)-2H-pyrazolo[3,4-b]pyridin-2-yl]phenyl}furan-2-carboxamide], the EC50 (in general, the concentration at which the effect is half-maximal) in test [1] (setting [3]) is 4.2 nM; in test [2] (setting [4]), 15 nM. Regarding `O=C(Nc1ccc(F)c(-n2cc3cc(-c4ncccc4Cl)cnc3n2)c1)C1CC1` [Compound 333, N-{3-[5-(3-chloropyridin-2-yl)-2H-pyrazolo[3,4-b]pyridin-2-yl]-4-fluorophenyl}cyclopropanecarboxamide], the EC50 in test [1] (setting [3]) was 16 nM; in test [2] (setting [4]), 43 nM.

`Cc1nc(C)c(C(=O)Nc2ccc(F)c(-n3cc4cc(C5CC5)cnc4n3)c2)o1` [Compound 17, N-(3-{5-cyclopropyl-2H-pyrazolo[3,4-b]pyridin-2-yl}-4-fluorophenyl)-2,4-dimethyl-1,3-oxazole-5-carboxamide]: the EC50 in test [1] (setting [3]) was found to be 16 nM; in test [2] (setting [4]), 64 nM. The like results for `O=C(Nc1ccc(F)c(-n2cc3cc(C4CCCCC4)cnc3n2)c1)c1ccco1` [Compound 57, N-(3-{5-cyclohexyl-2H-pyrazolo[3,4-b]pyridin-2-yl}-4-fluorophenyl)furan-2-carboxamide] were, in that order, 360 nM and 710 nM. Consider `O=C(Nc1ccc(F)c(-n2cc3cc(N4CCC(F)(F)C4)cnc3n2)c1)N1CC(F)C1` [Compound 262, N-{3-[5-(3,3-difluoropyrrolidin-1-yl)-2H-pyrazolo[3,4-b]pyridin-2-yl]-4-fluorophenyl}-3-fluoroazetidine-1-carboxamide], for which the EC50 in test [1] (setting [3]) was determined as 4 nM; in test [2] (setting [4]) it was 33 nM.

Consider `O=C(Nc1ccc(F)c(-n2cc3cc(N4CC5(C4)CC5(F)F)cnc3n2)c1)N1CC(F)C1` [Compound 261, N-[3-(5-{1,1-difluoro-5-azaspiro[2.3]hexan-5-yl}-2H-pyrazolo[3,4-b]pyridin-2-yl)-4-fluorophenyl}-3-fluoroazetidine-1-carboxamide], for which the concentration giving a half-maximal response (EC50) in test [1] (setting [3]) was determined as 2 nM; in test [2] (setting [4]), 4 nM. Regarding `Cc1nc(C)c(C(=O)Nc2ccc(F)c(-c3cn4cc(C(C)C)cnc4n3)c2)o1` [reference compound], the EC50 is 48 nM in test [1] (setting [5]) and 180 nM in test [2] (setting [5]). Consider `O=C(Nc1ccc(F)c(-n2cc3cc(C4CCCC4)cnc3n2)c1)N1CC(F)(F)C1` [Compound 30, N-(3-{5-cyclopentyl-2H-pyrazolo[3,4-b]pyridin-2-yl}-4-fluorophenyl)-3,3-difluoroazetidine-1-carboxamide], for which, in test [2] (setting [4]), the EC50 stood at 590 nM. As to `Cc1nc(C)c(C(=O)Nc2ccc(F)c(-n3cc4cc(C(C)C)cnc4n3)c2)o1` [drawing 458], the EC50 came out at 15 nM in test [1] (setting [5]) and 18 nM in test [2] (setting [5]). With `O=C(Nc1ccc(F)c(-n2cc3cc(C4CCCC4)cnc3n2)c1)N1CC[C@@H](F)C1` [Compound 43, (3R)-N-(3-{5-cyclopentyl-2H-pyrazolo[3,4-b]pyridin-2-yl}-4-fluorophenyl)-3-fluoropyrrolidine-1-carboxamide], the results for the EC50 in test [1] (setting [3]) and in test [2] (setting [4]) were 5.2 nM and 4.7 nM, respectively.

In the case of `CC(C)c1cnc2nn(-c3cc(NC(=O)C4CCC4)ccc3F)cc2c1` [Compound 210, N-{4-fluoro-3-[5-(propan-2-yl)-2H-pyrazolo[3,4-b]pyridin-2-yl]phenyl}cyclobutanecarboxamide], the concentration giving a half-maximal response (EC50) worked out at 79 nM in test [1] (setting [3]) and 494 nM in test [2] (setting [4]). The matching figures for `CC(C)c1cnc2nn(-c3cc(NC(=O)N4CC(F)(F)C4)ccc3F)cc2c1` [Compound 124, 3,3-difluoro-N-{4-fluoro-3-[5-(propan-2-yl)-2H-pyrazolo[3,4-b]pyridin-2-yl]phenyl}azetidine-1-carboxamide]: 16 nM and 18 nM. As for `CC(C)Cc1cnc2nn(-c3cc(NC(=O)N4CC[C@@H](F)C4)ccc3F)cc2c1` [Compound 41, (3R)-3-fluoro-N-{4-fluoro-3-[5-(2-methylpropyl)-2H-pyrazolo[3,4-b]pyridin-2-yl]phenyl}pyrrolidine-1-carboxamide], the EC50 in test [2] (setting [4]) was found to be 20 nM.
